These results are taken from patent publication US10030016B2 (Sunesis Pharmaceuticals, Inc., priority 2009, dated 2018).

For assay [1], the system named is phospho-akt (Thr308) in PC-3 cells. In words: Inhibition of phospho-akt (Thr308) in PC-3 cells, MSD phospho-akt 308 ELISA kit. Type of assay: cell-based. The settings on record: Homo sapiens, 2 hours, no serum, read-out: EC50. The method in brief: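 Serum-free 2 h compound exposure of overnight-seeded PC-3 cells, threefold dilution series; lysates analysed on blocked MSD plates (3% BSA) for Thr308-phosphorylated Akt, normalised between DMSO and 5 μM wortmannin wells.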

The target of another assay is PDK1 (Homo sapiens (Human), UniProt O15530). Kind of assay: PDK1 kinase assay (coupled PDK1/AKT/FAM-crosstide assay, IMAP fluorescence polarization). Type of assay: biochemical. In short, it runs like this: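 Inhibition is derived by 4-parameter fitting of ΔmP from an IMAP fluorescence polarization read of FAM-crosstide (100 nM) phosphorylation. The cascade ran 30 min at 25 °C with 40 μM ATP, using insect-cell GST-PDK1 51-359 (0.75 nM) driving 10 nM unphosphorylated AKT2 140-467-PIFtide fusion.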
Chain of PDK1 (O15530 51-359): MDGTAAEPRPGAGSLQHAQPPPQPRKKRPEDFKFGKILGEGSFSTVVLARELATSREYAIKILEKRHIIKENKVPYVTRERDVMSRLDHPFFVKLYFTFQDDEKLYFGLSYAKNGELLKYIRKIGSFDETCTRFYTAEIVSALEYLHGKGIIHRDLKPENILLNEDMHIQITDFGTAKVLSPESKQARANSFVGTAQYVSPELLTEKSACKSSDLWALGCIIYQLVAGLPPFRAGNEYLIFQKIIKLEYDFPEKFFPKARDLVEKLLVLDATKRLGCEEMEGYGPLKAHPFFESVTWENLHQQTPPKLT

The mark [2] stands for this setting: inhibition of P308 Akt in PC-3 cells, MSD.
[3] abbreviates: inhibition of phospo-PDK1 in vitro.
Setting [4] is: inhibition of P308 Akt in PC-3 cells using MSD.

Structures can show the parent of a compound that is named as a salt. Where two headings read alike, the source gives them in different places. A value given as a limit tells only on which side of the number the result lay.

For orientation: EC50 means the concentration needed to bring the measured effect to its halfway point. By IC50 is commonly meant the concentration at which inhibition is half-maximal. A low value points to greater potency in that assay. In the case of `CN(Cc1ccc(F)c(F)c1)C(=O)c1nccnc1NCc1ccc(-c2ccc3ncnc(N)c3c2)s1` [Example 3.84, 3-({[5-(4-aminoquinazolin-6-yl)thiophen-2-yl]methyl}amino)-N-(3,4-difluorobenzyl)-N-methylpyrazine-2-carboxamide (TFA salt)], the EC50 in assay [1] (setting [2]) was 1000 to 10000 nM. The compound further gave an IC50 on PDK1 (setting [3]) of 100 to 1000 nM.
As to `Nc1ncnc2ccc(-c3ccc(CNc4ncccc4C(=O)Nc4ccc(Cl)c(F)c4)s3)cc12` [Example 3.55, 2-({[5-(4-aminoquinazolin-6-yl)thiophen-2-yl]methyl}amino)-N-(4-chloro-3-fluorophenyl) pyridine-3-carboxamide (TFA salt)], the EC50 in assay [1] (setting [2]) is over 10000 nM. Also, on PDK1 (setting [3]), the IC50 is 100 to 1000 nM.
In the case of `C[C@@H](Nc1ncc(C(F)(F)F)nc1C(=O)Nc1ccc(F)cc1)c1ccc(-c2cnc3[nH]nc(N)c3c2)cc1` [Example 421, (R)-3-(1-(4-(3-amino-1H-pyrazolo[3,4-b]pyridin-5-yl)phenyl)ethylamino)-N-(4-fluorophenyl)-6-(trifluoromethyl)pyrazine-2-carboxamide], the EC50 in assay [1] (setting [4]) was under 1000 nM. Moreover, the IC50 at PDK1 (inhibition of PDK1 in vitro) was under 100 nM.
Consider `Nc1ncnc2ccc(-c3ccc(CNc4ncc(I)cc4C(=O)NCc4ccc(F)c(F)c4)s3)cc12` [Ex. 8.3, 2-{[5-(4-amino-quinazolin-6-yl)-thiophen-2-ylmethyl]-amino}-N-(3,4-difluoro-benzyl)-5-iodo-nicotinamide], for which the EC50 in assay [1] (setting [2]) was under 1000 nM. The compound also had an IC50 at PDK1 (setting [3]) of under 100 nM.
In the case of `C[C@H](NC(=O)c1nccnc1NCc1ccc(-c2ccc3ncnc(N)c3c2)s1)c1ccc(F)c(F)c1` [Example 3.77, 3-({[5-(4-aminoquinazolin-6-yl)thiophen-2-yl]methyl}amino)-N-[(1S)-1-(3,4-difluorophenyl)ethyl] pyrazine-2-carboxamide (TFA salt)], in assay [1] (setting [2]), the concentration for a half-maximal effect (EC50) was under 1000 nM. Besides, the IC50 on PDK1 (setting [3]) was under 100 nM.
For `C[C@H](NC(=O)c1cn(-c2ccccn2)nc1NCc1ccc(-c2ccc3ncnc(N)c3c2)s1)c1ccc(F)c(F)c1` [Ex. 11.3], in that order: under 1000 nM and under 100 nM.
Turning to `C[C@H](NC(=O)c1cccnc1NCc1ccc(-c2ccc3ncc4ncn(C)c4c3c2)s1)c1ccc(F)cc1` [Example 2.18], the EC50 in assay [1] (setting [2]) was under 1000 nM. In addition, the half-maximal inhibitory concentration (IC50) on PDK1 (setting [3]) fell in the range of 100 to 1000 nM.
With `Nc1n[nH]c2ncc(-c3ccc(CNc4ncc(C(F)(F)F)cc4C(=O)Nc4ccccn4)cc3)cc12` [Example 274], the EC50 in assay [1] (setting [4]) lay within 1000 to 10000 nM. Besides, on PDK1 (inhibition of PDK1 in vitro), the IC50 was under 100 nM.
For `Nc1n[nH]c2ncc(-c3ccc(CNc4ncc(C(F)(F)F)cc4C(=O)Nc4ccccc4)cc3)cc12` [Example 292, 2-(4-(3-amino-1H-pyrazolo [3,4-b]pyridin-5-yl)benzylamino)-N-phenyl-5-(trifluoromethyl)nicotinamide], the EC50 in assay [1] (setting [4]) was under 1000 nM. The half-inhibitory concentration (IC50) against PDK1 (inhibition of PDK1 in vitro) is under 100 nM.
Consider `C[C@H](NC(=O)c1nc(C#N)cnc1NCc1ccc(-c2cnc(N)c(CCC3CCNC3)n2)cc1)c1ccc(F)c(F)c1` (single isomer, unassigned) [Example 79], for which the EC50 in assay [1] (PC-3, 2 h, inhibition of P308 Akt in PC-3 cells using MSD) is under 1000 nM. Further, the 50% inhibitory concentration (IC50) against PDK1 (inhibition of PDK1 in vitro) was under 100 nM.
Take `Nc1n[nH]c2ncc(-c3ccc(CNc4ncc(C(F)(F)F)cc4C(=O)Nc4ccc(F)cc4)cn3)cc12` [Example 57, 2-(((6-(3-amino-1H-pyrazolo[3,4-b]pyridin-5-yl)pyridin-3-yl)methyl)amino)-N-(4-fluorophenyl)-5-(trifluoromethyl)nicotinamide]: the EC50 in assay [1] (setting [4]) was under 1000 nM. In addition, at PDK1 (inhibition of PDK1 in vitro), the IC50 was under 100 nM.
Turning to `Cn1cnc2cnc3ccc(-c4ccc(CNc5ncc(C#N)nc5C(=O)NCc5ccc(F)cc5)s4)cc3c21` [Example 3.82, 6-cyano-N-(4-fluorobenzyl)-3-(((5-(1-methyl-1H-imidazo [4,5-c]quinolin-8-yl)thiophen-2-yl)methyl)amino)pyrazine-2-carboxamide (TFA salt)], the concentration giving a half-maximal response (EC50) in assay [1] (setting [2]) is under 1000 nM. The compound also returned a 50% inhibitory concentration (IC50) on PDK1 (setting [3]) of under 100 nM.
Taken in the same sequence, the figures for `C[C@H](NC(=O)c1cccnc1N[C@@H](COc1ccc2[nH]c(=O)[nH]c2c1)c1ccccc1)c1ccc(F)c(F)c1` [Example 16.3] were 1000 to 10000 nM and 100 to 1000 nM.
With `O=C(NCc1ccc(F)c(F)c1)c1cccnc1Nc1cccc(-c2cccc3c2CNC3=O)c1` [Example 17.1, N-(3,4-difluorobenzyl)-2-(3-(1-oxoisoindolin-4-yl)phenylamino)-nicotinamide], the EC50 in assay [1] (setting [2]) is over 10000 nM. Further, the half-inhibitory concentration (IC50) on PDK1 (setting [3]) fell in the range of 100 to 1000 nM.
For `O=C(NCC1CCCC1)c1cccnc1NCc1ccc(-c2c[nH]c3ncccc23)s1` [Example 1.19, 2-(((5-(1H-pyrrolo[2,3-b]pyridin-3-yl)thiophen-2-yl)methyl)amino)-N-4-(cyclopentylmethyl) nicotinamide], the EC50 in assay [1] (setting [2]) was 1000 to 10000 nM. Besides, at PDK1 (setting [3]), the IC50 was in the range of 1000 to 5000 nM.
With `C[C@H](NC(=O)c1cc(F)cnc1NCc1ccc(-c2cc3c(N)ncnc3cn2)s1)c1ccc(F)c(F)c1` [Example 7.15, 2-({[5-(4-aminopyrido[3,4-d]pyrimidin-6-yl)thiophen-2-yl]methyl}amino)-N-[(1S)-1-(3,4-difluorophenyl)ethyl]-5-fluoropyridine-3-carboxamide], in assay [1] (setting [2]), the EC50 was 1000 to 10000 nM. For the same compound, the IC50 on PDK1 (setting [3]) was in the range of 100 to 1000 nM.
For `CNc1ncc2cc(O[C@@H](C)CNc3ncc(C#N)cc3C(=O)N[C@@H](C)c3ccc(F)cc3)ccc2n1` [Example 253, 5-cyano-N-((S)-1-(4-fluorophenyl)ethyl)-2-((S)-2-(2-(methylamino)quinazolin-6-yloxy)propylamino)nicotinamide], the EC50 in assay [1] (setting [4]) was over 10000 nM. This compound came in with an IC50 against PDK1 (inhibition of PDK1 in vitro) of 1000 to 5000 nM.
`Nc1ncnc2ccc(-c3ccc(CNc4nccc5c4C(=O)N(Cc4ccc(F)c(F)c4)C5)s3)cc12` [Ex. 7.19, 4-({[5-(4-aminoquinazolin-6-yl)thiophen-2-yl]methyl}amino)-2-(3,4-difluorobenzyl)-1,2-dihydro-3H-pyrrole[3,4-c]pyridin-3-one]: the EC50 in assay [1] (setting [2]) lay within 1000 to 10000 nM. The compound also yielded an IC50 at PDK1 (setting [3]) of 100 to 1000 nM.
Turning to `Nc1ncnc2ccc(-c3ccc(CNc4ncccc4C(=O)NCc4ccc(C(F)(F)F)o4)s3)cc12` [Example 3.28, 2-({[5-(4-aminoquinazolin-6-yl)thiophen-2-yl]methyl}amino)-N-{[5-(trifluoromethyl)furan-2-yl]methyl}pyridine-3-carboxamide (bis TFA salt)], the EC50 in assay [1] (PC-3, 2 h, inhibition of P308 Akt in PC-3 cells, MSD) is over 10000 nM. The compound further came in with an IC50 at PDK1 (setting [3]) of 1000 to 5000 nM.
Regarding `Cn1cc(-c2ccc(CNc3ncc(C(F)(F)F)cc3C(=O)Nc3ccc(F)cc3)cc2)c2c(N)ncnc21` [Example 323, 2-(4-(4-amino-7-methyl-7H-pyrrolo[2,3-d]pyrimidin-5-yl)benzylamino)-N-(4-fluorophenyl)-5-(trifluoromethyl)nicotinamide], the EC50 in assay [1] (setting [4]) was under 1000 nM. The IC50 on PDK1 (inhibition of PDK1 in vitro) is under 100 nM.
For `C[C@H](NC(=O)c1cc(C#N)cnc1NCc1ccc(-c2cnc(N)c(O[C@@H]3CCC[C@H]3N)n2)cc1)c1ccc(F)cc1` [Example 171, 2-{4-[5-Amino-6-((1R,2R)-2-amino-cyclopentyloxy)-pyrazin-2-yl]-benzylamino}-5-cyano-N-[(S)-1-(4-fluoro-phenyl)-ethyl]-nicotinamide], in that order: 1000 to 10000 nM and under 100 nM.
Consider `C[C@H](NC(=O)c1cccnc1NCc1ccc(-c2ccc3ncnc(N4CCC4)c3c2)s1)c1ccc(F)c(F)c1` [Example 387, 2-{[5-(4-Azetidin-1-yl-quinazolin-6-yl)-thiophen-2-ylmethyl]-amino}-N-[(S)-1-(3,4-difluoro-phenyl)-ethyl]-nicotinamide], for which the EC50 in assay [1] (setting [4]) is 1000 to 10000 nM. In addition, at PDK1 (inhibition of PDK1 in vitro), the concentration for half-maximal inhibition (IC50) was under 100 nM.
Taken in the same sequence, the figures for `N#Cc1ccc(NCc2ccc(-c3ccc4ncnc(N)c4c3)s2)c(C(=O)NCc2ccc(F)c(F)c2)c1` [Example 247, 2-(((5-(4-aminoquinazolin-6-yl)thiophen-2-yl)methyl)amino)-5-cyano-N-(3,4-difluorobenzyl)benzamide] were over 10000 nM and under 100 nM.
Turning to `CCN(CC)CCNC(=O)c1c(C)[nH]c(/C=C2\C(=O)Nc3cc(/C=C/CNc4ncccc4C(=O)NCc4ccc(F)c(F)c4)ccc32)c1C` [Example 15.17, 2-((E)-3-((Z)-3-((4-(2-(diethylamino)ethylcarbamoyl)-3,5-dimethyl-1H-pyrrol-2-yl)methylene)-2-oxoindolin-6-yl)allylamino)-N-(3,4-difluorobenzyl)nicotinamide], the EC50 in assay [1] (setting [2]) fell in the range of 1000 to 10000 nM. In addition, the IC50 against PDK1 (setting [3]) was under 100 nM.
On to `C[C@H](NC(=O)c1cc(C#N)cnc1NCc1ccc(-c2cnc3[nH]c(=O)[nH]c3c2)cc1)c1ccc(F)c(F)c1` [Example 361, (S)-5-cyano-N-(1-(3,4-difluorophenyl)ethyl)-2-(4-(2-oxo-2,3-dihydro-1H-imidazo[4,5-b]pyridin-6-yl)benzylamino) nicotinamide], for which the EC50 in assay [1] (setting [4]) was under 1000 nM. For the same compound, on PDK1 (inhibition of PDK1 in vitro), the IC50 was under 100 nM.
On to `CN(C)CCCNC(=O)c1cnc(NCc2ccc(-c3ccc4ncnc(N)c4c3)s2)c(C(=O)NCc2ccc(F)c(F)c2)c1` [Example 7.24.5, 2-({[5-(4-aminoquinazolin-6-yl)thiophen-2-yl]methyl}amino)-N^3-(3,4-difluorobenzyl)-N^5-[3-(dimethylamino)propyl] pyridine-3,5-dicarboxamide], for which, in assay [1] (setting [2]), the half-maximal effective concentration (EC50) is over 10000 nM. Moreover, the IC50 against PDK1 (setting [3]) was in the range of 100 to 1000 nM.
